From ChEMBL document CHEMBL5247655, “Simplified Derivatives of Tetrandrine as Potent and Specific P-gp Inhibitors to Reverse Multidrug Resistance in Cancer Chemotherapy” (J Med Chem, 2023)
Converted amounts (≈) assume the structure as drawn.

Legend:
[1] = system: ECa-109 cell line; assay: Cytotoxicity against vincristine resistant human Eca-109 cells incubated for 48 hrs by CCK-8 method relative to control; format: functional; set-up: concentration or dose not given beside the values
[2] = system: ECa-109 cell line; assay: Reversal of vincristine-resistance in human Eca-109 cells assessed as fold reversal by measuring cell viability incubated for 48 hrs by CCK-8 method relative to vincristine alone; format: functional
[3] = system: ECa-109 cell line; assay: Reversal of VCR -resistance in human Eca-109 cells assessed as cell viability at 5 uM incubated for 48 hrs by CCK-8 method (reference value: 6830.0+/-537.0 nM); format: functional, cell-based; settings: ECa-109, 48 h
[4] = system: ECa-109 cell line; assay: Reversal of vincristine-resistance in human Eca-109 cells assessed as fold reversal by measuring cell viability at 5 uM incubated for 48 hrs by CCK-8 method relative to vincristine alone; format: functional
[5] = system: ECa-109 cell line; assay: Induction of apoptosis in vincristine resistant human Eca-109 cells assessed as viable cells at 5 uM incubated for 24 hrs by AnnexinV-FITC/PI staining based flow cytometric analysis (reference value: 90.3%); format: functional; settings: read-out: Activity
[6] = system: ECa-109 cell line; assay: Induction of apoptosis in vincristine resistant human Eca-109 cells assessed as early apoptotic cells at 5 uM incubated for 24 hrs by AnnexinV-FITC/PI staining based flow cytometric analysis (reference value: 2.30%); format: functional
[7] = system: ECa-109 cell line; assay: Induction of apoptosis in vincristine resistant human Eca-109 cells assessed as late apoptotic cells at 5 uM incubated for 24 hrs by AnnexinV-FITC/PI staining based flow cytometric analysis (reference value: 7.19%); format: functional
[8] = system: ECa-109 cell line; assay: Induction of apoptosis in vincristine resistant human Eca-109 cells assessed as necrotic cells at 5 uM incubated for 24 hrs by AnnexinV-FITC/PI staining based flow cytometric analysis (reference value: 0.25%); format: functional
[9] = system: ECa-109 cell line; assay: Induction of apoptosis in vincristine resistant human Eca-109 cells assessed as viable cells at 5 uM incubated for 24 hrs in presence of vincristine by AnnexinV-FITC/PI staining based flow cytometric analysis (reference value: 89.2%); format: functional; settings: read-out: Activity
[10] = system: ECa-109 cell line; assay: Induction of apoptosis in vincristine resistant human Eca-109 cells assessed as early apoptotic cells at 5 uM incubated for 24 hrs in presence of vincristine by AnnexinV-FITC/PI staining based flow cytometric analysis (reference value: 4.43%); format: functional
[11] = system: ECa-109 cell line; assay: Induction of apoptosis in vincristine resistant human Eca-109 cells assessed as late apoptotic cells at 5 uM incubated for 24 hrs in presence of vincristine by AnnexinV-FITC/PI staining based flow cytometric analysis (reference value: 6.01%); format: functional
[12] = system: ECa-109 cell line; assay: Induction of apoptosis in vincristine resistant human Eca-109 cells assessed as necrotic cells at 5 uM incubated for 24 hrs in presence of vincristine by AnnexinV-FITC/PI staining based flow cytometric analysis (reference value: 0.35%); format: functional
[13] = Toxicity in nude mouse assessed as change in body weight at 0.2 mg/kg administered every 2 days for 21 days; format: organism-based; settings: in vivo, 48 h, time 2 day
[14] = Solubility of the compound in water at 25 degree C by shake flask method based UV-spectrophotometric method; format: physicochemical
[15] = molecular target: ATP-dependent translocase ABCB1 (Homo sapiens, UniProt P08183); assay: Binding affinity to P-gp in vincristine resistant human Eca-109 cells assessed as stabilization of protein at 67 degree C at 100 uM incubated for 30 mins by thermal shift assay; format: cell-based; settings: eca-109, 0.5 h
Chain of ATP-dependent translocase ABCB1 (P08183 whole entry): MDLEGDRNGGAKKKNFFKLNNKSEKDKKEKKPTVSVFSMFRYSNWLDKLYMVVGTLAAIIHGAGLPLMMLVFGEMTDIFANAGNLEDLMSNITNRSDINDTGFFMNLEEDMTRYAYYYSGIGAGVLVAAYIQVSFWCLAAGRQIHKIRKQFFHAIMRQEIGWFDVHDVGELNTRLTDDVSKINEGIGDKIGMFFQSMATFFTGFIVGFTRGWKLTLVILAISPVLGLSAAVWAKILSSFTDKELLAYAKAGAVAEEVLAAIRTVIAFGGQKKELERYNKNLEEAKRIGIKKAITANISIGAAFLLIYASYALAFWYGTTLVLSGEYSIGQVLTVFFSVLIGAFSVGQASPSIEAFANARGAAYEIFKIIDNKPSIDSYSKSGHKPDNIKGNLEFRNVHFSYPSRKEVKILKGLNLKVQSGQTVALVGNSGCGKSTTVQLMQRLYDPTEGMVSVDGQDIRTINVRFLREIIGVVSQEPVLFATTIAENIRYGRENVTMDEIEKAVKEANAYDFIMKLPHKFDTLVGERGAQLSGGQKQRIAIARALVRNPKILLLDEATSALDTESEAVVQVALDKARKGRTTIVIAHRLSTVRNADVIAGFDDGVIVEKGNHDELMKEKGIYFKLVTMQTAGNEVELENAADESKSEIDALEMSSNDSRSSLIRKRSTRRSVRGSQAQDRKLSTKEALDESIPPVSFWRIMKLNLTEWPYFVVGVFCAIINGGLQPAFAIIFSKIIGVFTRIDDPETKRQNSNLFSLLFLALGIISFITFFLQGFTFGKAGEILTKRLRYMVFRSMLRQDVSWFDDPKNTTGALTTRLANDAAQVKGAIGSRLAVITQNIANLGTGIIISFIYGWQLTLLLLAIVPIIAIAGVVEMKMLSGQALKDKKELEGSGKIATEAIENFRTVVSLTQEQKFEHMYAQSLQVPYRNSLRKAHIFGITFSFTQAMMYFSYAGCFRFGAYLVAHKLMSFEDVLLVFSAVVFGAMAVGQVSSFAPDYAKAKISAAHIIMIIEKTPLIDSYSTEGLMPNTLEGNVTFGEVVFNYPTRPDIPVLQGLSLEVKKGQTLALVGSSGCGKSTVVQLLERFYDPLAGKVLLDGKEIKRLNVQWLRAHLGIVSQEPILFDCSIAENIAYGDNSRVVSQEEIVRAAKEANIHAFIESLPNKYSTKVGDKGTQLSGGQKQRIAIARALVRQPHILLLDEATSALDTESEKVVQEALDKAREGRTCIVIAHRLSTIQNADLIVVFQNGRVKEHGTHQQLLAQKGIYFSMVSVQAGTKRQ

| Compound | Activity [1] | fold change (FC) [2] | further results |
| --- | --- | --- | --- |
| COc1cc2c(cc1OC)C(Cc1ccc(I)cc1)N(C)CC2 (stereo unspecified) | 99% | 2.9 | – |
| COc1ccc(C[C@@H]2c3cc(Oc4cc(C[C@@H]5c6cc(OC)c(OC)cc6CCN5C)ccc4O)c(OC)cc3CCN2C)cc1 [NEFERINE] | – | – | IC50 [3]: 3790 nM; fold change (FC) [4]: 1.8 |
| COc1ccc(CCN(C)CCCC(C#N)(c2ccc(OC)c(OC)c2)C(C)C)cc1OC (stereo unspecified) [VERAPAMIL] | 95.6% | 10.1 | IC50 [3]: 679 nM; fold change (FC) [4]: 10.1; viability at 5 µM [5]: 89.3%; Activity [6]: 2.65%; Activity [7]: 7.92%; Activity [8]: 0.12%; viability at 5 µM [9]: 68.8%; Activity [10]: 20.3%; Activity [11]: 10.5%; Activity [12]: 0.48% |
| COc1cc2c(cc1OC)CN(C)CC2 | 90.9% | 7.7 | – |
| CCOc1ccc(CC2c3cc(OC)c(OC)cc3CCN2C)cc1OC (stereo unspecified) | 88% | 11.7 | – |
| CCC1c2cc(OC)c(OC)cc2CCN1C (stereo unspecified) | 90.6% | 4.2 | – |
| COc1cc2c(cc1OC)C(Cc1ccc([N+](=O)[O-])cc1)N(C)CC2 (stereo unspecified) | 87.1% | 2.3 | – |
| COc1cc2c(cc1OC)C(Cc1ccc(OC)c(OCCC(C)C)c1)N(C)CC2 (stereo unspecified) | 87.1% | 205.7 | – |
| COc1cc2c(cc1OC)C(Cc1ccc(C(F)(F)F)cc1)N(C)CC2 (stereo unspecified) | 91.7% | 3.5 | – |
| COc1cc2c(cc1OC)C(Cc1ccccc1O)N(C)CC2 (stereo unspecified) | 98.9% | 7.1 | – |
| COc1cc2c(cc1OC)C(Cc1ccc(C)cc1)N(C)CC2 (stereo unspecified) | 95.9% | 4.5 | – |
| COc1cc2c(cc1OC)C(Cc1cccc(Cl)c1)N(C)CC2 (stereo unspecified) | 89% | 23.6 | – |
| COc1cc2c(cc1OC)C(Cc1ccc(OC)c(OCCC3CCCCC3)c1)N(C)CC2 (stereo unspecified) | 81% | 143.3 | – |
| COc1cc(CC2c3cc(OC)c(OC)cc3CCN2C)ccc1O (stereo unspecified) | 90.3% | 2.8 | – |
| COc1cc2c(cc1OC)C(Cc1ccc(OCCC3CCCCC3)c(OC)c1)N(C)CC2 (stereo unspecified) | 54.3% | 166.4 | – |
| CC[C@]1(O)C[C@H]2CN(CCc3c([nH]c4ccccc34)[C@@](C(=O)OC)(c3cc4c(cc3OC)N(C=O)[C@H]3[C@@](O)(C(=O)OC)[C@H](OC(C)=O)[C@]5(CC)C=CCN6CC[C@]43[C@@H]65)C2)C1 [VINCRISTINE] | – | – | Activity [13]: Non-Toxic |
| COc1cc(Br)c(CC2c3cc(OC)c(OC)cc3CCN2C)cc1OC (stereo unspecified) | 93.4% | 16 | – |
| COc1cc2c(cc1OC)C(Cc1ccc(Cl)cc1)N(C)CC2 (stereo unspecified) | 93% | 8.6 | – |
| COc1cc2c(cc1OC)C(Cc1ccc(OC)c(OCC3CCOCC3)c1)N(C)CC2 (stereo unspecified) | 94.4% | 126.8 | – |
| COc1cc2c(cc1OC)C(Cc1ccc(OC)c(OCc3ccccc3)c1)N(Cc1ccccc1)CC2 (stereo unspecified) | 68.8% | 42.7 | – |
| COc1cc2c(cc1OC)C(Cc1ccc(F)cc1)N(C)CC2 (stereo unspecified) | 99.3% | 2.8 | – |
| COc1cc2c(cc1OC)C(CC(F)(F)F)N(C)CC2 (stereo unspecified) | 88.2% | 3 | – |
| COc1ccc(CC2c3cc(OC)c(OC)cc3CCN2C)cc1O (stereo unspecified) | 903% | 2.5 | – |

| Compound | Activity [1] | fold change (FC) [2] | further results |
| --- | --- | --- | --- |
| COc1cc2c(cc1OC)C(Cc1ccccc1)N(C)CC2 (stereo unspecified) | 93.7% | 4.4 | – |
| COc1cc2c(cc1OC)C(Cc1ccc3c(c1)OCO3)N(C)CC2 (stereo unspecified) | 90.8% | 5 | – |
| COc1cc2c(cc1OC)C(Cc1ccccc1Cl)N(C)CC2 (stereo unspecified) | 96.3% | 13.4 | – |
| COc1cc2c(cc1OC)C(=O)N(C)CC2 | 98.4% | 3.2 | – |
| COc1cc2c(cc1OC)C(c1ccc(O)cc1)N(C)CC2 (stereo unspecified) | 87.7% | 1.8 | – |
| COc1cc2c(cc1OC)C(Cc1ccc(Br)cc1)N(C)CC2 (stereo unspecified) | 92.8% | 1.6 | – |
| COc1cc2c(cc1OC)C(Cc1cccc(O)c1)N(C)CC2 (stereo unspecified) | 99.2% | 4.3 | – |
| COc1ccc2cc1Oc1ccc(cc1)C[C@H]1c3cc(c(OC)cc3CCN1C)Oc1c(OC)c(OC)cc3c1[C@H](C2)N(C)CC3 [FANCHININ] | 87.1% | 232.6 | solubility thermodynamic [14]: 14.6 µg/mL (≈ 23.4 µM); IC50 [3]: 29.4 nM; fold change (FC) [4]: 232.6; viability at 5 µM [5]: 88.2%; Activity [6]: 3.68%; Activity [7]: 8.01%; Activity [8]: 0.15%; viability at 5 µM [9]: 67.5%; Activity [10]: 18.8%; Activity [11]: 13.1%; Activity [12]: 0.54% |
| COc1cc2c(cc1OC)CN(CCc1ccc(NC(=O)c3cc(OC)c(OC)cc3NC(=O)c3cnc4ccccc4c3)cc1)CC2 [TARIQUIDAR] | 85.9% | 187.4 | Activity [15]: Active |
| COc1ccc(CC2c3cc(OC)c(OC)cc3CCN2C)cc1OC (stereo unspecified) [LAUDANOSINE] | 90.7% | 12.9 | – |
| COc1cc2c(cc1OC)C(CC1CCCCC1)N(C)CC2 (stereo unspecified) | 89.9% | 3.7 | – |
| CN1CCc2ccccc2C1=O | 91.3% | 2.5 | – |
| COc1cc2c(cc1OC)C(CC(C)C)N(C)CC2 (stereo unspecified) | 96.1% | 3.3 | – |
| COc1ccc(CC2c3cc(OC)c(OC)cc3CCN2C)cc1 (stereo unspecified) | 96.3% | 7.4 | – |
| COc1cc2c(cc1OC)C(Cc1ccc(O)cc1)N(C)CC2 (stereo unspecified) | 98.1% | 2.8 | – |
| COc1cc2c(cc1OC)C(C)N(C)CC2 (stereo unspecified) | 91.1% | 2.6 | – |
| COc1cc2c(cc1OC)C(Cc1ccc(OC)c(OCC3CCCCC3)c1)N(C)CC2 (stereo unspecified) | 88.1% | 140.3 | – |
| COc1ccc2cc1Oc1ccc(cc1)C[C@H]1c3c(cc4c(c3Oc3cc5c(cc3OC)CCN(C)[C@@H]5C2)OCO4)CCN1C [CEPHARANTHINE] | – | – | IC50 [3]: 437 nM; fold change (FC) [4]: 15.6 |
| CCOC(=O)CCCOc1cc(CC2c3cc(OC)c(OC)cc3CCN2C)ccc1OC (stereo unspecified) | 86.7% | 219.3 | – |
| COc1cc2c(cc1OC)C(Cc1ccc(C#N)cc1)N(C)CC2 (stereo unspecified) | 99.8% | 3.6 | – |
| CN1CCc2cc(Br)ccc2C1=O | 88.6% | 2 | – |
| COc1cc2c(cc1OC)C1Cc3ccc(OC)c(O)c3CN1CC2 (stereo unspecified) | 74.2% | 1.2 | – |
